The text below walks through data of patent US20200262813A1, “1,5,7-TRISUBSTITUTED ISOQUINOLINE DERIVATIVES, PREPARATION THEREOF, AND USE THEREOF IN MEDICINES” (SHANGHAI HAIYAN PHARMACEUTICAL TECHNOLOGY CO., LTD., priority 2016, published 2020).

Read-outs that look alike come from different tables or passages of the source.

Assay [1] deals with Pfeiffer cells. The assay is described as follows: Cell proliferation test (cell counting kit-8, 6 days). Conditions: 6 days' growth. The class given is cell-based. How it is done:
Cells were harvested by centrifuge and densities were determined using a CounterStar cell counter. Appropriate number of cells were plated in a 96-well culture plate and incubated overnight. Compounds to be tested were 1:3 diluted for 8 gradient points and added into corresponding wells. After 6 days' growth, cell counting kit-8 (Dojindo) was used to detect cell viability and absorbance values were read on Tecan infinite pro.
(In general: Tetrazolium assays rely on reduction of a dye to a coloured formazan, in cell work by metabolically active cells.)

The target of assay [2] is Recombinant PRC2 (EZH2-Y641F) (Homo sapiens, UniProt Q15910, Y641F). The assay is described as follows: In vitro methyltransferase activity test (LANCE Ultra).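 Also: compounds tested as an 8-point threefold dilution series, fluorescence read after 1 h detection step at room temperature, IC50 derived from a four-parameter curve fit.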 Conditions: LANCE Ultra detection, 3 hours reaction. For orientation: TR-FRET usually uses a lanthanide donor and a delayed reading to cut background.
Procedure: In Vitro Methyltransferase Activity Test
Recombinant PRC2 (EZH2-Y641F) was purchased from Active motif, S-adenosyl-methionine (SAM) and Poly-L-lysine (PLL) were purchased from Sigma-Aldrich, H3(1-50)K27mel polypeptide was purchased from Cisbio. LANCEUltra system (Perkinelmer) was used for detection. In the enzyme activity test, a compound to be tested was 1:3 diluted for 8 gradient points, added into a reaction plate, and then added 100 ng recombinant enzyme. And then a buffer [20 mM Tris pH8.5, 2 mM MgCl2, 0.01% Tween-20, 1 mM TCEP] containing 2.5 M SAM/250 nM H3(1-50)K27mel premixture was added to conduct an enzyme reaction at room tempreture. After reacted for 3 hours, a dection solution containing premixed PLL, detection antibody and Ulight was added, reacted for 1 h at RT, then fluorescence was read on Tecan infinite pro. IC50s were calculated by four-factor model fitting in a XLfit software.
The mark [3] stands for this setting: EZH2 Y641F IC50, Recombinant PRC2 (EZH2-Y641F).
The mark [4] stands for this setting: read-out: EZH2 Y641F IC50, Recombinant PRC2 (EZH2-Y641F).

Chain of Recombinant PRC2 (EZH2-Y641F) (Q15910 whole entry Y641F): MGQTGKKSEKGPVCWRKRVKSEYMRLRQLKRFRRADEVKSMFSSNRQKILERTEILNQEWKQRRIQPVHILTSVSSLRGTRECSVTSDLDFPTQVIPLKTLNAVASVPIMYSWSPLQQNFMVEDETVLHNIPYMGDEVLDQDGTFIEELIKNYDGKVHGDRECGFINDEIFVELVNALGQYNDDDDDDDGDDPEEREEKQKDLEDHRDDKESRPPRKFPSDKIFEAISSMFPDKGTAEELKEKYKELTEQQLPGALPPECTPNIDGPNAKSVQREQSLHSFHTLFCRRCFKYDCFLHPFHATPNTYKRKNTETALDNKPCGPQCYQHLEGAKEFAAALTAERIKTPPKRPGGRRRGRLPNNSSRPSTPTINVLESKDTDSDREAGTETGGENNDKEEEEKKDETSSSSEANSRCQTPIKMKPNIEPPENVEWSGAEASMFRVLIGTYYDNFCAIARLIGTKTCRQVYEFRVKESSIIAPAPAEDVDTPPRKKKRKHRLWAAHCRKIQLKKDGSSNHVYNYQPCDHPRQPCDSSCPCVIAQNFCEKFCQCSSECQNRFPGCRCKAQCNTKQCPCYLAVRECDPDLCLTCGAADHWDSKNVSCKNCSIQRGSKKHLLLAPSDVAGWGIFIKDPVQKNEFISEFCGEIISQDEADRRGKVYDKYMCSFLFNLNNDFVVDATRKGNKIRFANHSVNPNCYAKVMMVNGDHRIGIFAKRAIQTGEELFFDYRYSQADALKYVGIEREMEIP
Chain of Recombinant PRC2 (EZH2-Y641F) (O75530 whole entry partner): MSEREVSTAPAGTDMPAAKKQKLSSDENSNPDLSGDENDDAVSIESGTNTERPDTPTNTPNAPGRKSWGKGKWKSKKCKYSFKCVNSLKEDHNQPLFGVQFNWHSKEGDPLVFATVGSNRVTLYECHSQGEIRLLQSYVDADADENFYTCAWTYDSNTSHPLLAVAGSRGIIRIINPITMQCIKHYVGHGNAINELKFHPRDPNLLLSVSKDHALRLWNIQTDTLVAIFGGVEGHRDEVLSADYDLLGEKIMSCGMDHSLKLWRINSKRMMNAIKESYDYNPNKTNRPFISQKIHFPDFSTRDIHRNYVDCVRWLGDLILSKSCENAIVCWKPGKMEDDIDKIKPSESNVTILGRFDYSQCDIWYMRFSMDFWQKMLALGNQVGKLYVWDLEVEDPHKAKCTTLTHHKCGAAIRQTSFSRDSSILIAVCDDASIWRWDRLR
Chain of Recombinant PRC2 (EZH2-Y641F) (Q15022 whole entry partner): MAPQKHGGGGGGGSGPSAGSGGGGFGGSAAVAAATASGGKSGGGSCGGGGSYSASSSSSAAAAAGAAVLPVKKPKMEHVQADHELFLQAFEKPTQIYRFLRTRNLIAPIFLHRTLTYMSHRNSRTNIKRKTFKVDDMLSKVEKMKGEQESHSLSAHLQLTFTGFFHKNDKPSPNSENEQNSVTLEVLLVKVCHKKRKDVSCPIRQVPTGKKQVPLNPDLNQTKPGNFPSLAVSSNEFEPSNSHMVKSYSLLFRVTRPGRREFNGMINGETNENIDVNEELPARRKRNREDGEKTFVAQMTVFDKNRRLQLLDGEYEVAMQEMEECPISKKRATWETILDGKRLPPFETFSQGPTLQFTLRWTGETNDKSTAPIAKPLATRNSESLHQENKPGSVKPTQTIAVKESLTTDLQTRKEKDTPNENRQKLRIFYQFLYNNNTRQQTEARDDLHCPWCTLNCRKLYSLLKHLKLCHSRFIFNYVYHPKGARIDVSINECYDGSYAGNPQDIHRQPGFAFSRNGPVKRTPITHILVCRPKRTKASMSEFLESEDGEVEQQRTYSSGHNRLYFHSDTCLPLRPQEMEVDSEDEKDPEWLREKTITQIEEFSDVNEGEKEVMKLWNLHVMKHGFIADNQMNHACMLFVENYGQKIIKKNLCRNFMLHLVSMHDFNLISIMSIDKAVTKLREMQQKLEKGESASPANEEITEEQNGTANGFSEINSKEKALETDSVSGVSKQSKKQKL
Chain of Recombinant PRC2 (EZH2-Y641F) (Q09028 whole entry partner): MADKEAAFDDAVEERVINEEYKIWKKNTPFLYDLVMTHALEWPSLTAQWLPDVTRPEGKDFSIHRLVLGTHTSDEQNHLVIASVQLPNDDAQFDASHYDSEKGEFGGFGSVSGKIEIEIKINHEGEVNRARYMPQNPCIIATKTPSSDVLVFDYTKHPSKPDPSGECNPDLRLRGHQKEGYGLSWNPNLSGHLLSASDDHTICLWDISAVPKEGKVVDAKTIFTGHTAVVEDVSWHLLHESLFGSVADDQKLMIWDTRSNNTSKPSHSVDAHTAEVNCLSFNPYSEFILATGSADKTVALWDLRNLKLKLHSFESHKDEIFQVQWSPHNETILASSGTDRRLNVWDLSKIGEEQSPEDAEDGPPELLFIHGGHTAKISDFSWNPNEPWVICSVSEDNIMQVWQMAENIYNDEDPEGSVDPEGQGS
Chain of Recombinant PRC2 (EZH2-Y641F) (Q6ZN18 whole entry partner): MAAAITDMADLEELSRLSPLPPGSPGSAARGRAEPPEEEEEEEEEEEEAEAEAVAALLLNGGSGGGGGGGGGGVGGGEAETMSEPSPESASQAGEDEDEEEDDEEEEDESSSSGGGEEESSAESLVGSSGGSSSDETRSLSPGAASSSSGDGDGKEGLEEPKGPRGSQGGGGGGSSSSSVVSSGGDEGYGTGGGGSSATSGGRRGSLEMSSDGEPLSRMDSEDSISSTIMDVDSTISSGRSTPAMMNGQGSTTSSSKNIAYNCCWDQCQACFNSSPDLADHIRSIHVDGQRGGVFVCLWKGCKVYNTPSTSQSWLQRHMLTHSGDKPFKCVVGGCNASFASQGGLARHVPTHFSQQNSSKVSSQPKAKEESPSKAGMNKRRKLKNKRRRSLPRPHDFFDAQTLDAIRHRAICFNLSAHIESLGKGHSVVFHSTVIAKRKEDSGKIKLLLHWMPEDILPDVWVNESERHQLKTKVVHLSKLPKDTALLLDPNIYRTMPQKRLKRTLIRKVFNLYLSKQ

In general, IC50 refers to the concentration that inhibits the measured activity by half. Turning to `CCN(c1cc(C#CCN2CCN(C)CC2)cc2c(NCc3c(C)cc(C)[nH]c3=O)nccc12)C1CCC(N(C)C)CC1` (stereo not drawn) [Compound Z-180], the IC50 in assay [1] (Homo sapiens, Pfeiffer, 144 h) amounted to 0.38 µM; in assay [2] (setting [3]), 0.013 µM.
Consider `CCN(c1cc(-c2cccnc2)cc2c(NCc3c(C)cc(C)[nH]c3=O)nccc12)[C@H]1CC[C@@H](N(C)C)CC1` [Compound Z-64], for which the IC50 in assay [1] (Homo sapiens, Pfeiffer, 144 h) stood at 0.357 µM; in assay [2] (setting [3]), 0.009 µM.
Consider `CCN(c1cc(-c2cnc(N3CCOCC3)nc2)cc2c(NCc3c(C)cc(C)[nH]c3=O)nccc12)[C@H]1CC[C@@H](O)CC1` [Compound Z-108], for which the IC50 in assay [1] was 0.612 µM; in assay [2] (setting [4]), 0.283 µM.
In the case of `CCN(c1cc(-c2ccc(CN3CCCCC3)cc2)cc2c(NCc3c(C)cc(C)[nH]c3=O)nccc12)C1CCC(N(C)C)CC1` (stereo not drawn) [Compound Z-37], the IC50 in assay [1] (Homo sapiens, Pfeiffer, 144 h) was 0.991 µM; in assay [2] (setting [3]), 0.028 µM.
Regarding `CCN(c1cc(-c2cncc(F)c2)cc2c(NCc3c(C)cc(C)[nH]c3=O)nccc12)C1CCN(C(C)C)CC1` [Compound Z-125], the IC50 in assay [1] (Homo sapiens, Pfeiffer, 144 h) came out at 0.772 µM; in assay [2] (setting [3]), 0.022 µM.
With `CCN(c1cc(-c2cnc(N3CCOCC3)nc2)cc2c(NCc3c(C)cc(C)[nH]c3=O)nccc12)[C@H]1CC[C@H](N(C)C)CC1` [Compound Z-46], the IC50 in assay [1] (Homo sapiens, Pfeiffer, 144 h) came out at 0.362 µM; in assay [2] (setting [3]), 0.014 µM.
Take `CCN(c1cc(OCCOC)cc2c(NCc3c(C)cc(C)[nH]c3=O)nccc12)C1CCC(N(C)C)CC1` (stereo not drawn) [Compound Z-206]: the IC50 was found to be 0.234 µM in assay [1] (Homo sapiens, Pfeiffer, 144 h) and 0.115 µM in assay [2] (setting [3]).
For `CCN(c1cc(Cl)cc2c(NCc3c(OC)cc(C)[nH]c3=O)nccc12)C1CCNCC1` [Compound Z-208], in that order: 0.155 µM and 0.009 µM.
Regarding `CCN(c1cc(-c2ccc(CN3CCN(C)CC3)cc2)cc2c(NCc3c(C)cc(C)[nH]c3=O)nccc12)[C@H]1CC[C@H](N(C)C)CC1` [Compound Z-54], the half-maximal inhibitory concentration (IC50) in assay [1] (Homo sapiens, Pfeiffer, 144 h) was found to be 0.614 µM; in assay [2] (setting [3]), 0.019 µM.
As for `CCN(c1cc(-c2cnc(N3CCOCC3)nc2)cc2c(NCc3c(C)cc(C)[nH]c3=O)nccc12)C1CCC(O)CC1` (stereo not drawn) [Compound Z-99], the IC50 in assay [1] (Homo sapiens, Pfeiffer, 144 h) stood at 0.201 µM; in assay [2] (setting [3]) it was 0.251 µM.
In the case of `CCN(c1cc(-c2ccc(N3CCN(C)CC3)nc2)cc2c(NCc3c(C)cc(C)[nH]c3=O)nccc12)C1CCC(O)CC1` (stereo not drawn) [Compound Z-86], the IC50 in assay [1] (Homo sapiens, Pfeiffer, 144 h) worked out at 0.483 µM; in assay [2] (setting [3]), 0.128 µM.
For `CCN(c1cc(-c2ccc(CN3CCN(C)CC3)nc2)cc2c(NCc3c(C)cc(C)[nH]c3=O)nccc12)C1CCOCC1` [Compound Z-35], the IC50 in assay [1] was determined as 0.611 µM; in assay [2] (setting [3]), 0.221 µM.
On to `CCN(c1cc(-c2ccc(C3CCN(C)CC3)nc2)cc2c(NCc3c(C)cc(C)[nH]c3=O)nccc12)[C@H]1CC[C@H](N(C)C)CC1` [Compound Z-17, 3-((5-(((1R,4R)-4-(dimethylamino)cyclohexyl) (ethyl)amino)-7-(6-(1-methylpiperidine-4-yl)pyridine-3-yl)-isoquinolinylamino)methyl)-4,6-dimethylpyridine-2(1H)-one], for which the IC50 in assay [1] (Homo sapiens, Pfeiffer, 144 h) came out at 0.768 µM; in assay [2] (setting [3]), 0.013 µM.
The corresponding values for `CCN(c1cc(Cl)cc2c(NCc3c(C)cc(C)[nH]c3=O)nccc12)C1CC2CCC(C1)N2` (stereo not drawn) [Compound Z-209] are 0.25 µM and 0.01 µM.
For `CCN(c1cc(-c2ccc(N3CCN(C)CC3)nc2)cc2c(NCc3c(C)cc(C)[nH]c3=O)nccc12)C1CCNC(C)C1` (stereo not drawn) [Compound Z-220, 3-((5-(ethyl (2-methylpiperidin-4-yl)amino)-7-(6-(4-methylpiperazin-1-yl)pyridin-3-yl)isoquinolin-1-ylamino)methyl)-4,6-dimethylpyridine-2(1H)-one], in that order: 0.651 µM and 0.031 µM.
With `CCN(c1cc(-c2cnc(N3CCOCC3)nc2)cc2c(NCc3c(OC)cc(C)[nH]c3=O)nccc12)C1CCC(N(C)C)CC1` (stereo not drawn) [Compound Z-192], the IC50 is 0.393 µM in assay [1] (Homo sapiens, Pfeiffer, 144 h) and 0.042 µM in assay [2] (setting [3]).
In the case of `CCN(c1cc(C#CCN2CCOCC2)cc2c(NCc3c(C)cc(C)[nH]c3=O)nccc12)[C@H]1CC[C@@H](N(C)C)CC1` [Compound Z-179], the half-inhibitory concentration (IC50) was 0.54 µM in assay [1] and 0.015 µM in assay [2] (setting [4]).
Consider `CCN(c1cc(-c2ccc(CN3CCN(C)CC3)nc2)cc2c(NCc3c(C)cc(C)[nH]c3=O)nccc12)C1CCC(F)(F)CC1` [Compound Z-105], for which the IC50 in assay [1] (Homo sapiens, Pfeiffer, 144 h) turned out to be 0.988 µM; in assay [2] (setting [3]) it was 0.197 µM.
`CCN(c1cc(-c2ccc(N3CCN(C)CC3)nc2)cc2c(NCc3c(C)cc(C)[nH]c3=O)nccc12)C1CCC(F)(F)CC1` [Compound Z-94]: the concentration for half-maximal inhibition (IC50) in assay [1] (Homo sapiens, Pfeiffer, 144 h) came to 0.384 µM; in assay [2] (setting [3]) it was 0.159 µM.
For `CCN(c1c(F)c(-c2ccc(N3CCN(C)CC3)nc2)cc2c(NCc3c(C)cc(C)nc3O)nccc12)[C@H]1CC[C@H](N(C)C)CC1` [Compound Z-232, 3-((5-(((1R,4R)-4-(dimethylamino)cyclohexyl) (ethyl)amino)-6-fluoro-7-(6-(4-methylpiperazin-1-yl)pyridin-3-yl)isoquinolin-1-ylamino)methyl)-4,6-dimethyl-2(1H)-one], in that order: 0.188 µM and 0.026 µM.
For `Cc1cc(C)c(CNc2nccc3c(N(C)C4CCC(N(C)C)CC4)cc(-c4ccc(N5CCN(C)CC5)nc4)cc23)c(=O)[nH]1` (stereo not drawn) [Compound Z-111], in that order: 0.478 µM and 0.037 µM.
Regarding `CCN(c1cc(-c2ccc(CN3CCOCC3)nc2)cc2c(NCc3c(C)cc(C)[nH]c3=O)nccc12)C1CCOCC1` [Compound Z-113], the IC50 in assay [1] (Homo sapiens, Pfeiffer, 144 h) turned out to be 0.713 µM; in assay [2] (setting [3]) it was 0.153 µM.
With `CCN(c1cc(Cl)cc2c(NCc3c(OC)cc(C)[nH]c3=O)nccc12)C1CCC(N(C)C)CC1` (stereo not drawn) [Compound Z-197], the IC50 in assay [1] (Homo sapiens, Pfeiffer, 144 h) turned out to be 0.371 µM; in assay [2] (setting [3]), 0.051 µM.
The corresponding values for `CCN(c1cc(-c2ccc(N3CCOCC3)nc2)cc2c(NCc3c(C)cc(C)[nH]c3=O)nccc12)C1CCN(C(C)C)CC1` [Compound Z-66] are 0.766 µM and 0.159 µM.
